Measured values taken from US20040038824A1, “Agrochemical composition” (priority 2000, published 2004).

System: Wheat
Assay: Greenhouse test of the safener's protective action on wheat against herbicide damage (post-emergence tank mix)
Assay type: in vivo
Conditions: 2- to 3-leaf stage, tank mix with herbicide propynyl (R)-2[4-[(5-chloro-3-fluoro-2-pyridynyl]oxy-phenoxy]propanoate, 20 days post-application
Source text: Wheat seeds are sown in the greenhouse in plastic pots comprising 0.5 l of garden soil.

CCCCCC(C)OC(=O)COc1ccc(Cl)c2cccnc12 (stereo not shown) [safener of the formula I, 1-methylhexyl (5-chloroquinolin-8-yloxy)acetate tetrahydrate]
protective action of the safener in comparison with the plants treated with the herbicide only: very effective
